Data taken from patent US20030133918A1, “Methods for ex vivo propagation of somatic stem cells” (priority 2001, published 2003).

Legend:
[1] = system: Xs-D8 cells; experiment: Daughter pair analysis (DPA), BrdU incorporation; assay type: cell-based, rat; conditions: addition of Xs; n=58 pairs; 16% in absence of Xs
Experimental: The assay is called a “daughter pair analysis” (DPA). To perform the DPA, cells are plated in Xs-containing medium at microcolony density (approximately one cell per 40× microscope field). After allowing 4 to 5 hours for cell adherence, asymmetric cell kinetics are induced by changing to Xs-free medium. After about 16 hours to allow cell divisions to produce “daughter pairs”, the cells are labeled for 4 hours with the thymidine analogue bromodeoxyuridine (BrdU). The cells are then fixed and evaluated for BrdU incorporation by in situ immunofluorescence.
When grown in the absence of Xs, 84% of Xs-D8 BrdU(+) daughter pairs show a single BrdU(+) daughter (n=76 pairs; e.g., FIGS. 3C,F). The BrdU(+) daughter is the cycling stem cell daughter, whereas the BrdU(−) daughter corresponds to a non-cycling transit cell daughter that can undergo differentiation in peptide hydrogels (data not shown). Consistent with its ability to shift cells from asymmetric to exponential kinetics, addition of Xs increases the fraction of double-BrdU(+) Xs-D8 daughter pairs from 16% to 76% (n=58 pairs; e.g., FIGS. 3B,E). […] For 70 scored daughter pairs in Xs-free medium, the frequency of Xs-F1 symmetric pairs was 5 times the frequency of Xs-D8 symmetric pairs.

[2] = system: adherent cells from long-term bone marrow cultures; experiment: Soft agar colony formation by adherent cells from long-term bone marrow cultures; assay type: cell-based, mice; conditions: adherent cells from cultures with 0.4 to 1.0 mM Xs
Text: Because of the difficulties anticipated in cloning Xs-dependent cells from heterogenous long-term bone marrow cultures, we decided to adopt a soft agar culture strategy. It is well known that hematopoietic progenitor cells will form colonies when grown in semi-solid medium (Dexter et al., 1984). […] Instead, it simply reflects their natural ability to divide without anchorage. In many bone marrow cell studies, conditions are selected to induce bone marrow cell differentiation. Methyl-cellulose or soft agar supplemented with lineage-promoting growth factors are widely used experimental systems (Dexter et al., 1984). For ideal SACK, we wished to minimize stimuli for differentiation. Therefore, we used agar developed in routine horse serum-supplemented long-term culture medium, without any additional growth factor source, as the gel medium for our studies. We followed procedures developed for detecting anchorage-independent growth of transformed tumor cells.
Our plan was to evaluate SACK effects on soft agar colonies derived from fresh bone marrow. Therefore, we wished to relate the morphology of colonies that arose from fresh bone marrow cells to those that arose from LT-CFCs in long-term cultures. […] After 9 weeks of culture, when adherent cells were evaluated after washing and then removal with half-strength trypsin, only type II colonies were detected (frequency=19×10^−5). […]

[3] = system: freshly harvested murine bone marrow cells; experiment: Bone marrow colony formation in soft agar (fresh bone marrow); assay type: cell-based
Experimental: The following numbers of freshly harvested murine bone marrow cells were plated in soft agar in replicates of 6 in 6-well plates: 1×10^5, 5×10^5, or 1×10^6. After 1-3 weeks, type I, II, and III colonies (see FIG. 2 for examples) were enumerated by phase microscopy.
Because of the difficulties anticipated in cloning Xs-dependent cells from heterogenous long-term bone marrow cultures, we decided to adopt a soft agar culture strategy. It is well known that hematopoietic progenitor cells will form colonies when grown in semi-solid medium (Dexter et al., 1984). […] In many bone marrow cell studies, conditions are selected to induce bone marrow cell differentiation. Methyl-cellulose or soft agar supplemented with lineage-promoting growth factors are widely used experimental systems (Dexter et al., 1984). For ideal SACK, we wished to minimize stimuli for differentiation. Therefore, we used agar developed in routine horse serum-supplemented long-term culture medium, without any additional growth factor source, as the gel medium for our studies. We followed procedures developed for detecting anchorage-independent growth of transformed tumor cells.
Given their associated HSC activity, LT-CFCs are predicted to divide with asymmetric cell kinetics. We evaluated whether Xs would increase the frequency of LT-CFC type I colonies in soft agar. Freshly prepared bone marrow cells were plated in soft agar developed in either control medium or medium containing 1 mM or 3 mM Xs.

[4] = system: LT-CFCs; experiment: Serial transfer of LT-CFC-derived type I colonies in soft agar; assay type: cell-based, murine
Experimental: Type I colonies were isolated from soft agar with either control medium or medium containing Xs (data for 1 mM and 3 mM Xs are combined). Colonies were dispersed and then plated in a single 6-well in soft agar developed with culture medium containing the respective concentration of Xs. After 1-3 weeks, the number and type of secondary colonies were scored by phase microscopy. Bars indicate the mean percent of positive wells for each secondary colony type. Data for the control condition are the means of two independent experiments; data for Xs condition are the means of four independent experiments. We next evaluated whether LT-CFCs which produced type I colonies could be propagated in soft agar. Pasteur pipettes were used to isolate type I colonies from soft agar developed in either control medium or medium containing Xs. Isolated colonies were dispersed and their cells replated in their entirety in a single well of a 6-well plate in soft agar developed with the respective Xs concentration.

[5] = system: p53-inducible model cells; conditions: p53-inducible model cells (Sherley et al. 1995a, Liu et al. 1998a); cited from earlier work

With O=c1[nH]c(=O)c2ncn([C@@H]3O[C@H](CO)[C@@H](O)[C@H]3O)c2[nH]1 [Xs, xanthosine] the “Fraction of double-BrdU(+) Xs-D8 daughter pairs” value [1] was 76%, the “More type I colonies than control cultures (average)” value [2] was 35% and the “Increase in the frequency of type I colonies” value ([3]; 1 mM Xs, density of 1×10^5 bone marrow cells per 6-well) was 1.5 fold. The “Mean fold increase in the frequency of type I colonies” value ([3]; 1 mM Xs, inputs of 5×10^5 or 1×10^6 cells) was 5.3 fold, the “Mean fold increase in type I colony formation” value ([3]; Xs 1 mM and 3 mM, range 1.2 to 6.2, p<0.017) was 2.9 fold and the “Occurrence of multiple secondary colonies, more common in the presence of Xs” value ([4]; presence vs absence of Xs) was 5 times. For the same compound, the “Cases of multiple secondary colonies that occurred in Xs-containing medium” value ([4]; secondary colonies from type I colonies, 1 mM and 3 mM Xs combined) was “Eighty-three”, the “Type I colonies more frequent than type II and III colonies” value ([4]; secondary colonies in Xs-containing soft agar) was 50% and the “Efficiency of giving rise to type I secondary colonies versus control type I colonies” value ([4]; type I colonies grown in Xs) was 4 fold. For the same compound, the “Suppression of asymmetric cell kinetics” value [5] was “can suppress the asymmetric cell kinetics”.
